Data on four compounds can be found in US9012200B2, “Composition of bacterial strains, bioremediation mixture and use of this composition for the removal of contaminants from the soil and the method for purifying the soil contaminants” (priority 2012, dated 2015).

Type in all cases: cell-based
Experiment [1] has as its system Arthrobacter sp. strain 1N. Briefly: Disc diffusion antibiotic susceptibility. The conditions noted are these: 24 h. The method, then: (§1) A disc diffusion method was performed to determine the susceptibility of bacteria to the selected antibiotics. We used discs soaked with the antibiotic of a well-defined concentration (BioMerioux) (Table 2) and the minimal inhibitory concentration test was carried out, using E-tests (Oxoid) (Table 3).
(§2) A McFarland's 0.5 inoculum was prepared from each strain's culture, using a densitometer (EMO). Then, using sterile cotton swabs, the suspension of bacterial cells was spread on dishes with ready-to-use MHA medium (Oxoid), and after 15 minutes, discs soaked with antibiotics at defined concentrations were placed on them.
(§3) The dishes were incubated at 25-30° C., and the results were read after 24 and 48 hours. The measure of susceptibility of a tested strain to a given antibiotic was the size of the inhibition zone which formed around the disc soaked with the antibiotic. The results read (sizes of zones measured in mm) were compared with the data contained in the European Committee on Antimicrobial Susceptibility Testing (EUCAST) standards from 2010 (Table 4).
(§4) The measure of susceptibility of the tested bacterial strain to a given antibiotic was the size of the inhibition zone which formed around the disc (Table 5).

The test system of experiment [2] is Stenotrophomonas sp. strain 5L. Briefly: Disc diffusion antibiotic susceptibility. As to the method:
as §1, §2, §3, §4
On the technique in general: A growth-free zone around the sample is the usual read-out of agar diffusion tests.

The subject of experiment [3] is Achromobacter sp. strain 4P. Kind of experiment: Disc diffusion antibiotic susceptibility. The conditions noted are these: 24 h. The method, then: as §1, §2, §3, §4
The test system of experiment [4] is Brevundimonas sp. strain 5N. Briefly: Disc diffusion antibiotic susceptibility. The conditions noted are these: 24 h. As to the method: as §1, §2, §3, §4
Experiment [5] relates to Stenotrophomonas sp. strain 6L. Kind of experiment: Disc diffusion antibiotic susceptibility. The conditions noted are these: 24 h. The method, then:
as §1, §2, §3, §4

For experiment [6], the system named is Pseudomonas sp. strain 3G. Briefly: Disc diffusion antibiotic susceptibility. The conditions noted are these: 24 h. The method, then:
as §1, §2, §3, §4

For experiment [7], the system named is Brevundimonas sp. strain 6N. Briefly: Disc diffusion antibiotic susceptibility. The conditions noted are these: 24 h. The method, then: as §1, §2, §3, §4
Experiment [8] concerns Stenotrophomonas sp. strain 2L. Kind of experiment: Disc diffusion antibiotic susceptibility. The conditions noted are these: 24 h. The method, then:
as §1, §2, §3, §4

The test system of experiment [9] is Pseudomonas sp. strain 4G. Briefly: Disc diffusion antibiotic susceptibility. The conditions noted are these: 24 h. The method, then: as §1, §2, §3, §4
Experiment [10] relates to Stenotrophomonas sp. strain 3N. Briefly: Disc diffusion antibiotic susceptibility. The conditions noted are these: 24 h. The method, then:
as §1, §2, §3, §4

Experiment [11] relates to Brevundimonas sp. strain 2N. Briefly: Disc diffusion antibiotic susceptibility. The conditions noted are these: 24 h. As to the method:
as §1, §2, §3, §4

The subject of experiment [12] is Arthrobacter sp. strain 1N. Kind of experiment: Antibiotic MIC by E-test. The conditions noted are these: Arthrobacter, 24 h, read-out: MIC threshold values for a given antibiotic. The method, then:
as §1
(§5) In the next stage of the research, MIC values of a given antibiotic for the investigated strains were determined, meaning the lowest concentration of the drug, expressed in mg/L, determined in vitro, which inhibits the growth of bacteria at a defined inoculum density, within a given time (Hryniewicz et at, 2001). These studies allow for the closer determination of the degree of susceptibility of bacteria to the applied antibiotics.
(§6) A bacterial suspension was evenly distributed on dishes with ready-to-use MHA medium (Oxoid), and then plastic testing strips (E-tests) soaked with an antibiotic with a concentration gradient were placed thereon. The dishes were incubated at 25-30° C. for 24 h, and the test results were read after this time.
(§7) The intersection of elliptical zone of inhibition, which appeared around the test strip, with the value indicator on the gradient scale of the strip, determined the lowest concentration of antibiotic, inhibiting growth of the microorganism (MIC). Similarly as in the disc diffusion method, the obtained results were compared with the guidelines contained in the relevant standards.

In experiment [13] the test system is Stenotrophomonas sp. strain 5L. Briefly: Antibiotic MIC by E-test. The conditions noted are these: Stenotrophomonas, 24 h, read-out: MIC threshold values for a given antibiotic. As to the method:
as §1, §5, §6, §7

The subject of experiment [14] is Achromobacter sp. strain 4P. Kind of experiment: Antibiotic MIC by E-test. The conditions noted are these: Achromobacter, 24 h, read-out: MIC threshold values for a given antibiotic. As to the method:
as §1, §5, §6, §7

Experiment [15] deals with Brevundimonas sp. strain 5N. Briefly: Antibiotic MIC by E-test. The conditions noted are these: Brevundimonas, 24 h, read-out: MIC threshold values for a given antibiotic. The method, then: as §1, §5, §6, §7
Experiment [16] has as its system Stenotrophomonas sp. strain 6L. Kind of experiment: Antibiotic MIC by E-test. The conditions noted are these: Stenotrophomonas, 24 h, read-out: MIC threshold values for a given antibiotic. As to the method:
as §1, §5, §6, §7

The test system of experiment [17] is Pseudomonas sp. strain 3G. Kind of experiment: Antibiotic MIC by E-test. The conditions noted are these: Pseudomonas, 24 h, read-out: MIC threshold values for a given antibiotic. As to the method: as §1, §5, §6, §7
In experiment [18] the test system is Brevundimonas sp. strain 6N. Briefly: Antibiotic MIC by E-test. The conditions noted are these: Brevundimonas, 24 h, read-out: MIC threshold values for a given antibiotic. The method, then: as §1, §5, §6, §7
The subject of experiment [19] is Stenotrophomonas sp. strain 2L. Briefly: Antibiotic MIC by E-test. The conditions noted are these: Stenotrophomonas, 24 h, read-out: MIC threshold values for a given antibiotic. As to the method: as §1, §5, §6, §7
In experiment [20] the test system is Pseudomonas sp. strain 4G. Kind of experiment: Antibiotic MIC by E-test. The conditions noted are these: Pseudomonas, 24 h, read-out: MIC threshold values for a given antibiotic. The method, then:
as §1, §5, §6, §7

Experiment [21] deals with Stenotrophomonas sp. strain 3N. Briefly: Antibiotic MIC by E-test. The conditions noted are these: Stenotrophomonas, 24 h, read-out: MIC threshold values for a given antibiotic. The method, then:
as §1, §5, §6, §7

Experiment [22] relates to Brevundimonas sp. strain 2N. Kind of experiment: Antibiotic MIC by E-test. The conditions noted are these: Brevundimonas, 24 h, read-out: MIC threshold values for a given antibiotic. As to the method:
as §1, §5, §6, §7

≈ marks a conversion by molar mass, not a printed value. Like-named read-outs stand apart in the source and are kept apart here.

For the compound `O=C(O)c1cn(C2CC2)c2cc(N3CCNCC3)c(F)cc2c1=O` [CIP, ciprofloxacin], the “Size of the growth inhibition zone” value in [1] came out at 0 mm; in [2] (24 h) it was 10 mm; in experiment [2] (48 h), 0 mm; in experiment [3], 0 mm; in experiment [4] it was 0 mm; in experiment [5], 0 mm. The “Size of the growth inhibition zone” value in experiment [6], in experiment [7], in experiment [8], in experiment [9], in experiment [10] and in [11] was 0 mm in each case. The MIC (usually the lowest concentration that inhibits growth of the organism) in experiment [12] (strain 1N, E-test) was no less than 32 µg/mL; in [13], 4 µg/mL (≈ 12.1 µM); in experiment [14] (strain 4P, E-test), no less than 32 µg/mL; in [15], no less than 32 µg/mL; in experiment [16] it was no less than 32 µg/mL; in experiment [17] it was no less than 32 µg/mL. Moreover, the MIC in experiment [18], in experiment [19], in experiment [20], in experiment [21] and in experiment [22] was no less than 32 µg/mL throughout.

In the case of `CCn1cc(C(=O)O)c(=O)c2cc(F)c(N3CCNCC3)cc21` [NX, norfloxacin], the MIC amounted to 96 µg/mL (≈ 301 µM) in experiment [12] (strain 1N, E-test); 32 µg/mL (≈ 100 µM) in [13]; 256 µg/mL (≈ 802 µM) in [14] (strain 4P, E-test); 128 µg/mL (≈ 401 µM) in [15]; 128 µg/mL (≈ 401 µM) in [16]; 192 µg/mL (≈ 601 µM) in [17]. The MIC in [18] is 96 µg/mL (≈ 301 µM); in [19], 128 µg/mL (≈ 401 µM); in experiment [20] it was greater than 256 µg/mL; in experiment [21] it was 128 µg/mL (≈ 401 µM); in experiment [22] it was 256 µg/mL (≈ 802 µM).

On to `CO/N=C(\C(=O)N[C@@H]1C(=O)N2C(C(=O)O)=C(CSc3nc(=O)c(=O)[nH]n3C)CS[C@H]12)c1csc(N)n1` [TX, ceftriaxone], for which the MIC in experiment [12] (strain 1N, E-test) was no less than 256 µg/mL; in [13], no less than 256 µg/mL; in experiment [14] it was 16 µg/mL (≈ 28.9 µM); in experiment [15], no less than 256 µg/mL; in experiment [16], no less than 256 µg/mL; in experiment [17] it was no less than 256 µg/mL. The MIC in [18], in experiment [19], in experiment [20], in experiment [21] and in experiment [22] was no less than 256 µg/mL in each case.

Consider `CN[C@H](CC(C)C)C(=O)N[C@H]1C(=O)N[C@@H](CC(N)=O)C(=O)N[C@H]2C(=O)N[C@H]3C(=O)N[C@H](C(=O)N[C@H](C(=O)O)c4cc(O)cc(O)c4-c4cc3ccc4O)[C@H](O)c3ccc(c(Cl)c3)Oc3cc2cc(c3O[C@@H]2O[C@H](CO)[C@@H](O)[C@H](O)[C@H]2O[C@H]2C[C@](C)(N)[C@H](O)[C@H](C)O2)Oc2ccc(cc2Cl)[C@H]1O` [VA, vancomycin], for which the “Size of the growth inhibition zone” value in experiment [1], in experiment [2] (24 h), in [3], in [4], in experiment [5] and in experiment [6] was 0 mm in each case. Further, the “Size of the growth inhibition zone” value in experiment [7], in [8], in experiment [9], in [10] and in [11] was 0 mm throughout. For the same compound, the minimum inhibitory concentration (MIC) in [12] is no less than 256 µg/mL.
